From US20250064957A1, “EXATECAN DERIVATIVES, LINKER-PAYLOADS, AND CONJUGATES AND THEREOF” (priority 2021, published 2025)

Assays:
Type in all cases: cell-based
[1] = test system: high HER2 tumor cell line SK-BR-3; experiment: Effect of small molecules on SK-BR-3 cell proliferation (CellTiter-Glo); details: SK-BR-3, 120 h incubation, relative biological activity with Dxd as control sample
Procedure: Study Purpose: In this experiment, cell viability was detected using CellTiter-Glo to evaluate the effects of the small molecule compounds on the proliferation of a high HER2 tumor cell line SK-BR-3, and to analyze the effects of the small molecule compounds on the proliferation of tumor cells.
• (1) Microscopic examination of cells • (2) Digestion: digested using 2 mL 0.25% trypsin for 3 minutes; • (3) Centrifuge: 1000 rpm for 5 min; • (4) Cell counting • A. Cell dilution: • B. Cell plating: in 100 μl/well • C. Incubation: 37° C., 5% CO2, overnight
• (1) Microscopic examination • (2) Drug preparation: • A. Preparation of Buffer for preparation of samples: the desired amount of Buffer for preparation of samples was prepared using the culture medium (10% FBS) for the testing cells; • B. Sample preparation: the sample was diluted from the first concentration to the desired concentration in a 96-well deep-well Plate.
Positive control Puromycin: A stock solution of 2.5 mg/ml was used, and diluted with the cell medium. A dilution of 250-fold was preformed, and then a dilution of 2-fold was preformed when applying the compounds to reach the testing concentration 5 μg/ml for puromycin. • (3) Application of the compounds: for each concentration of the diluted series, the compound was applied in triplicate. In 100 μl/well. • (4) After the drug was added, the cells were incubated in the incubator for 120 h.
• (1) Preparation of detection reagents: CellTiter-Glo Luminescent Cell Viability Assay detection reagent was allowed to warm to room temperature with protection from light • (2) Cell preparation: The cells to be tested were taken out from the incubator and equilibrated at room temperature (25° C.) 30 min. • (3) ATP detection: Discard the culture medium and 100 μl/well DMEM was added, 50 μl/hole CTG was added into 96-well plate, protected from light using aluminum foil and oscillated using a vortex oscillator at room temperature of 200 rpm for 10 min. • (4) Detection procedure: After setting up the procedure, the black-wall clear-bottom plate was placed in the instrument without its cover. • (5) Data acquisition.
GraphPad software was used to process the data. […] If necessary, the relative biological activity of sample A, i.e., ratio activity was calculated. Dxd was used as the control sample for the ratio activity calculation.
Cell proliferation inhibition rate (%)=([…])/(luminescence value of blank control group−luminescence value of puro group)×100; wherein the puro group refers to the group treated with puromycin
R^2 Value ≥0.950; CV % between parallel pores ≤30%.

[2] = test system: SK-BR-3 HER2-high cell line; experiment: Effect of HER2-targeting conjugates on cell proliferation (CellTiter-Glo), SK-BR-3; details: SK-BR-3, 120 h
Procedure: (§1) Study Purpose: Cell viability was detected by CellTiter-Glo assay to evaluate the effects of the ADCs on the proliferation of two high HER2 tumor cell lines SK-BR-3, NCI-N87 and a HER2-negative tumor cell line MDA-MB-468, and to analyze the effects of the ADCs on the proliferation of tumor cells.
(§2) Positive control Puromycin: A stock solution of 10 mg/ml was used, and diluted with the cell medium. A dilution of 100-fold was preformed, and then a dilution of 10-fold was preformed when applying the compounds to reach the testing concentration 5 μg/ml for puromycin. • (4) Application of the compounds: for each concentration of the diluted series, the compound was applied in triplicate. […]

[3] = test system: NCI-N87 HER2-high cell line; experiment: Effect of HER2-targeting conjugates on cell proliferation (CellTiter-Glo), NCI-N87; details: NCI-N87, 120 h
Procedure: as §1, §2

SMILES | Ratio activity (%) [1] | IC50 [2] | IC50 [3]
CC[C@@]1(O)C(=O)OCc2c1cc1n(c2=O)Cc2c-1nc1cc(F)c(Br)c3c1c2[C@H](NC(=O)C[C@H](C)O)CC3 [C600] | 0.62% | – | –
CC[C@@]1(O)C(=O)OCc2c1cc1n(c2=O)Cc2c-1nc1cc(F)c(Br)c3c1c2[C@H](NC(=O)C[C@@H](C)O)CC3 [C602] | 0.29% | – | –
CC[C@@]1(O)C(=O)OCc2c1cc1n(c2=O)Cc2c-1nc1cc(F)c(Cl)c3c1c2[C@@H](NC(=O)[C@H](O)C(F)(F)F)CC3 [C626] | 0.54% | – | –
CC[C@@]1(O)C(=O)OCc2c1cc1n(c2=O)Cc2c-1nc1cc(F)c(Cl)c3c1c2[C@@H](NC(=O)CCCO)CC3 [C679] | 0.49% | – | –
CC[C@@]1(O)C(=O)OCc2c1cc1n(c2=O)Cc2c-1nc1cc(F)c(Cl)c3c1c2[C@H](N)CC3 [C731] | 0.82% | – | –
CC[C@@]1(O)C(=O)OCc2c1cc1n(c2=O)Cc2c-1nc1cc(F)c(C)c3c1c2[C@@H](NC(=O)CO)CC3 [Dxd] | 1% | 1.47 nM | 4.68 nM
